According to ChEMBL document CHEMBL4184222, “A multifaceted approach to identify non-specific enzyme inhibition: Application to Mycobacterium tuberculosis shikimate kinase” (Bioorg Med Chem Lett, 2018):
Converted amounts (≈) assume the structure as drawn.

Tests used:
[1] = Aggregation property of the compound in potassium phosphate buffer at pH 7.2 assessed as micelle formation by measuring peal broadening at 6.25 to 200 uM by one-dimensional 1H-NMR spectroscopy; type: physicochemical; details: pH 7.2, 200 µM
[2] = Aggregation property of the compound in ammonium acetate buffer at pH 7.6 assessed as light scattering intensity counts at 100 uM in presence of Triton X-100 by dynamic light scattering method; type: physicochemical; details: pH 7.6, 100 µM
[3] = tested on: Mycobacterium tuberculosis; test: Antimycobacterial activity against Mycobacterium tuberculosis H37Rv; type: functional
[4] = Aggregation property of the compound in ammonium acetate buffer at pH 7.6 assessed as particle size at 100 uM in presence of Triton X-100 by dynamic light scattering method; type: physicochemical; details: pH 7.6, 100 µM
[5] = Aggregation property of the compound in water at pH 7 assessed as particle size at 100 uM in absence of Triton X-100 by dynamic light scattering method; type: physicochemical; details: buffer, pH 7, 100 µM
[6] = Aggregation property of the compound in ammonium acetate buffer at pH 7.6 assessed as light scattering intensity counts at 100 uM in absence of Triton X-100 by dynamic light scattering method; type: physicochemical; details: pH 7.6, 100 µM
[7] = tested on: Mycobacterium tuberculosis; test: Inhibition of Mycobacterium tuberculosis shikimate kinase assessed as reduction in S3P production at <50 uM pre-incubated for 30 mins before ATP and shikimate substrate addition by LC-MS assay
[8] = Inhibition of Mycobacterium tuberculosis shikimate kinase assessed as reduction in S3P production pre-incubated for 30 mins before ATP and shikimate substrate addition by LC-MS assay
[9] = Aggregation property of the compound in ammonium acetate buffer at pH 7.6 assessed as particle size at 100 uM in absence of Triton X-100 by dynamic light scattering method; type: physicochemical; details: pH 7.6, 100 µM
[10] = Aggregation property of the compound in water at pH 7 assessed as light scattering intensity counts at 100 uM in absence of Triton X-100 by dynamic light scattering method; type: physicochemical; details: buffer, pH 7, 100 µM
[11] = Aggregation property of the compound in water at pH 7 assessed as particle size at 100 uM in presence of Triton X-100 by dynamic light scattering method; type: physicochemical; details: buffer, pH 7, 100 µM
[12] = Aggregation property of the compound in water at pH 7 assessed as light scattering intensity counts at 100 uM in presence of Triton X-100 by dynamic light scattering method; type: physicochemical; details: buffer, pH 7, 100 µM
[13] = tested on: Mycobacterium tuberculosis; test: Inhibition of Mycobacterium tuberculosis shikimate kinase assessed as reduction in S3P production at 30 uM pre-incubated with 0.02 uM enzyme for 30 mins before ATP and shikimate substrate addition in absence of Triton X-100 by LC-MS assay
[14] = Aggregation property of the compound in ammonium acetate buffer at pH 7.6 assessed as particle size at 3 uM in absence of Triton X-100 by dynamic light scattering method; type: physicochemical; details: pH 7.6, 3 µM
[15] = Aggregation property of the compound in ammonium acetate buffer at pH 7.6 assessed as particle size at 30 uM in presence of Triton X-100 by dynamic light scattering method; type: physicochemical; details: pH 7.6, 30 µM
[16] = Aggregation property of the compound in ammonium acetate buffer at pH 7.6 assessed as light scattering intensity counts at 10 uM in presence of Triton X-100 by dynamic light scattering method; type: physicochemical; details: pH 7.6, 10 µM
[17] = tested on: Mycobacterium tuberculosis; test: Inhibition of Mycobacterium tuberculosis shikimate kinase assessed as reduction in S3P production at 30 uM pre-incubated with 0.02 uM enzyme for 30 mins before ATP and shikimate substrate addition in presence of Triton X-100 by LC-MS assay
[18] = Aggregation property of the compound in water at pH 7 assessed as particle size at 30 uM in absence of Triton X-100 by dynamic light scattering method; type: physicochemical; details: buffer, pH 7, 30 µM
[19] = Aggregation property of the compound in water at pH 7 assessed as particle size at 30 uM in presence of Triton X-100 by dynamic light scattering method; type: physicochemical; details: buffer, pH 7, 30 µM
[20] = Aggregation property of the compound in ammonium acetate buffer at pH 7.6 assessed as light scattering intensity counts at 10 uM in absence of Triton X-100 by dynamic light scattering method; type: physicochemical; details: pH 7.6, 10 µM
[21] = Inhibition of Mycobacterium tuberculosis shikimate kinase assessed as reduction in S3P production […] pre-incubated with 0.015 uM enzyme for 30 mins before ATP and shikimate substrate addition by LC-MS assay
[22] = Aggregation property of the compound in ammonium acetate buffer at pH 7.6 assessed as particle size at 30 uM in absence of Triton X-100 by transmission electron microscopy; type: physicochemical; details: pH 7.6, 30 µM
[23] = Aggregation property of the compound in water at pH 7 assessed as light scattering intensity counts at 30 uM in absence of Triton X-100 by dynamic light scattering method; type: physicochemical; details: buffer, pH 7, 30 µM
[24] = Aggregation property of the compound in water at pH 7 assessed as light scattering intensity counts at 10 uM in absence of Triton X-100 by dynamic light scattering method; type: physicochemical; details: buffer, pH 7, 10 µM
[25] = tested on: Mycobacterium tuberculosis; test: Inhibition of Mycobacterium tuberculosis shikimate kinase assessed as reduction in S3P production at 30 uM pre-incubated with 0.2 uM enzyme for 30 mins before ATP and shikimate substrate addition in absence of Triton X-100 by LC-MS assay
[26] = Aggregation property of the compound in water at pH 7 assessed as particle size at 3 uM in presence of Triton X-100 by dynamic light scattering method; type: physicochemical; details: buffer, pH 7, 3 µM
[27] = Aggregation property of the compound in ammonium acetate buffer at pH 7.6 assessed as particle size at 10 uM in presence of Triton X-100 by dynamic light scattering method; type: physicochemical; details: pH 7.6, 10 µM
[28] = Aggregation property of the compound in water at pH 7 assessed as light scattering intensity counts at 10 uM in presence of Triton X-100 by dynamic light scattering method; type: physicochemical; details: buffer, pH 7, 10 µM
[29] = Aggregation property of the compound in ammonium acetate buffer at pH 7.6 assessed as light scattering intensity counts at 3 uM in absence of Triton X-100 by dynamic light scattering method; type: physicochemical; details: pH 7.6, 3 µM
[30] = Aggregation property of the compound in ammonium acetate buffer at pH 7.6 assessed as light scattering intensity counts at 30 uM in presence of Triton X-100 by dynamic light scattering method; type: physicochemical; details: pH 7.6, 30 µM
[31] = Aggregation property of the compound in ammonium acetate buffer at pH 7.6 assessed as particle size at 3 uM in presence of Triton X-100 by dynamic light scattering method; type: physicochemical; details: pH 7.6, 3 µM
[32] = Aggregation property of the compound in water at pH 7 assessed as particle size at 3 uM in absence of Triton X-100 by dynamic light scattering method; type: physicochemical; details: buffer, pH 7, 3 µM
[33] = Aggregation property of the compound in ammonium acetate buffer at pH 7.6 assessed as particle size at 10 uM in absence of Triton X-100 by dynamic light scattering method; type: physicochemical; details: pH 7.6, 10 µM
[34] = Aggregation property of the compound in ammonium acetate buffer at pH 7.6 assessed as particle size at 30 uM in absence of Triton X-100 by dynamic light scattering method; type: physicochemical; details: pH 7.6, 30 µM
[35] = Aggregation property of the compound in water at pH 7 assessed as light scattering intensity counts at 3 uM in presence of Triton X-100 by dynamic light scattering method; type: physicochemical; details: buffer, pH 7, 3 µM
[36] = Aggregation property of the compound in water at pH 7 assessed as light scattering intensity counts at 30 uM in presence of Triton X-100 by dynamic light scattering method; type: physicochemical; details: buffer, pH 7, 30 µM
[37] = Aggregation property of the compound in ammonium acetate buffer at pH 7.6 assessed as particle size at 30 uM in presence of Triton X-100 by transmission electron microscopy; type: physicochemical; details: pH 7.6, 30 µM
[38] = Aggregation property of the compound in water at pH 7 assessed as particle size at 10 uM in absence of Triton X-100 by dynamic light scattering method; type: physicochemical; details: buffer, pH 7, 10 µM
[39] = Aggregation property of the compound in water at pH 7 assessed as particle size at 10 uM in presence of Triton X-100 by dynamic light scattering method; type: physicochemical; details: buffer, pH 7, 10 µM
[40] = Aggregation property of the compound in ammonium acetate buffer at pH 7.6 assessed as light scattering intensity counts at 3 uM in presence of Triton X-100 by dynamic light scattering method; type: physicochemical; details: pH 7.6, 3 µM
[41] = Aggregation property of the compound in ammonium acetate buffer at pH 7.6 assessed as light scattering intensity counts at 30 uM in absence of Triton X-100 by dynamic light scattering method; type: physicochemical; details: pH 7.6, 30 µM
[42] = tested on: Mycobacterium tuberculosis; test: Inhibition of Mycobacterium tuberculosis shikimate kinase assessed as reduction in S3P production at 30 uM pre-incubated with 0.2 uM enzyme for 30 mins before ATP and shikimate substrate addition in presence of Triton X-100 by LC-MS assay
[43] = Aggregation property of the compound in water at pH 7 assessed as light scattering intensity counts at 3 uM in absence of Triton X-100 by dynamic light scattering method; type: physicochemical; details: buffer, pH 7, 3 µM
[44] = Aggregation property of the compound in potassium phosphate buffer at pH 7.2 assessed as micelle formation by measuring peal broadening at 12.5 to 200 uM by one-dimensional 1H-NMR spectroscopy; type: physicochemical; details: pH 7.2, 200 µM

SMILES: CCSc1ccc(C(=O)Nc2nnc(-c3ccco3)o2)cc1
- Activity [1]: Active
- Activity [2]: 100 kCounts
- IC90 [3]: 0.71 µg/mL (≈ 2.25 µM)
- Activity [4]: 185 nm
- Activity [5]: 1123 nm
- Activity [6]: 250 kCounts
- inhibition [7]: > 90%
- IC50 [8]: 20.7 µM
- Activity [9]: 1151 nm
- Activity [10]: 245 kCounts
- Activity [11]: 182 nm
- Activity [12]: 85 kCounts

SMILES: COc1cc(C=O)ccc1OCc1ccccc1COc1ccc(/C=C2/SC(=S)NC2=O)cc1OC
- inhibition [13]: 96%
- Activity [14]: 0 nm
- Activity [15]: 0 nm
- Activity [16]: 4 kCounts
- inhibition [17]: 98%
- Activity [18]: 80 nm
- Activity [19]: 0 nm
- Activity [20]: 4 kCounts
- IC50 [21]: 10.1 µM
- Activity [22]: 100 nm
- Activity [23]: 30 kCounts
- Activity [24]: 2 kCounts
- inhibition [25]: 55%
- Activity [26]: 0 nm
- Activity [27]: 0 nm
- Activity [28]: 2 kCounts
- Activity [29]: 0 Counts
- Activity [30]: 5 kCounts
- Activity [31]: 0 nm
- Activity [32]: 0 nm
- Activity [33]: 0 nm
- Activity [34]: 80 nm
- Activity [35]: 0 kCounts
- Activity [36]: 5 kCounts
- Activity [37]: 5 nm
- Activity [38]: 0 nm
- Activity [39]: 0 nm
- Activity [40]: 0 kCounts
- Activity [41]: 30 kCounts
- inhibition [42]: 83%
- Activity [43]: 0 kCounts

SMILES: Nc1nc2ccc(OC(F)(F)F)cc2s1 [RILUZOLE]
- Activity [44]: Not Active
